In the assay the test system is ULK. Kind of assay: ULK radiometric assay (33P incorporation onto MBP substrate, glass fiber capture filter). As to conditions: ULK Biochemical activity; 20 uM ATP, 0.2 mg/mL MBP; averages of at least two independent experiments. The protocol: ULK activity was measured using a radiometric assay, to measure the incorporation of radiolabelled ^33P onto MBP substrate using a glass fiber capture filter method. Reaction conditions were 0.2 mg/mL MBP, 20 uM ATP (0.25 μCi/well), 50 mM Tris HCl, pH7.5, 10 mM MgCl2, 0.1% beta-mercaptoethanol, 0.1 mM EGTA, 0.01% BSA. Ten point Half log Compound dilution series were prepared in 100% DMSO and added to the reaction to give final assay concentration of 10% DMSO. Compounds were tested in duplicate and values normalized to 10% DMSO only controls. The data were fitted to a four parameter fit equation and the IC50 values shown are averages of at least two independent experiments.

Molecules are shown by their SMILES. Bounds are passed on as bounds.

One may read the IC50 as the concentration needed to halve the response being measured. Higher therefore signals a need for much substance. The compound `O=C1CCCCN1CCCNc1nc(Nc2cccc3c2OCC3)ncc1C(F)(F)F` [Example 31, 1-[3-[[2-(2,3-Dihydrobenzofuran-7-ylamino)-5-(trifluoromethyl)pyrimidin-4-yl]amino]propyl]piperidin-2-one] yielded an IC50 of no less than 1 µM.

Compound `CN(C)Cc1cccc(Nc2ncc(C3CC3)c(NCCCN3CCCCC3=O)n2)c1` [Example 13, 1-(3-(5-Cyclopropyl-2-(3-((dimethylamino)methyl)phenylamino)pyrimidin-4-ylamino)propyl) piperidin-2-one] came in with an IC50 of less than 0.2 µM.

Regarding `CN1CCc2cc(Nc3ncc(C(F)(F)F)c(NCCCN4CCCCC4=O)n3)ccc2C1` [Example 7, 1-(3-((2-((2-Methyl-1,2,3,4-tetrahydroisoquinolin-6-yl)amino)-5-(trifluoromethyl)pyrimidin-4-yl)amino)propyl)piperidin-2-one], the IC50 was less than 0.2 µM.

For the compound `CN1CCc2cc(Nc3ncc(C4CC4)c(NCCCN4CCCC4)n3)ccc2C1` [Example 15, 5-Cyclopropyl-N2-(2-methyl-1,2,3,4-tetrahydroisoquinolin-6-yl)-N4-(3-(pyrrolidin-1-yl)propyl)pyrimidine-2,4-diamine], the IC50 was no less than 1 µM.

In turn, `COc1cc2c(cc1Nc1ncc(C3CC3)c(NCCCNC(=O)C3CCC3)n1)CNCC2` [Example 74, N-[3-[[5-cyclopropyl-2-[(6-methoxy-1,2,3,4-tetrahydroisoquinolin-7-yl)amino]pyrimidin-4-yl]amino]propyl]cyclobutanecarboxamide] had an IC50 of no less than 1 µM.

On to `CN1CCc2cc(Nc3ncc(C(F)(F)F)c(NCCCN4CCCC4)n3)ccc2C1` [Example 6, N2-(2-methyl-1,2,3,4-tetrahydroisoquinolin-6-yl)-N4-(3-(pyrrolidin-1-yl)propyl)-5-(trifluoromethyl)pyrimidine-2,4-diamine], for which the half-inhibitory concentration (IC50) lay in the range of 0.2 to 1 µM.

Consider `O=C1CCCCN1CCCNc1nc(Nc2cc(CN3CCOCC3)ccc2Cl)ncc1C(F)(F)F` [Example 55, 1-[3-[[2-[2-Chloro-5-(morpholinomethyl)anilino]-5-(trifluoromethyl)pyrimidin-4-yl]amino]propyl]piperidin-2-one], for which the IC50 lay in the range of 0.2 to 1 µM.

Take `CCOc1cc2c(cc1Nc1ncc(C(F)(F)F)c(NCCCN3CCCCC3=O)n1)CNCC2` [Example 21, 1-[3-[[2-[(6-Ethoxy-1,2,3,4-tetrahydroisoquinolin-7-yl)amino]-5-(trifluoromethyl)pyrimidin-4-yl]amino]propyl]piperidin-2-one]: the concentration for half-maximal inhibition (IC50) is less than 0.2 µM.

In turn, `COc1ccccc1Nc1ncc(C(F)(F)F)c(NCCCN2CCCCC2=O)n1` [Example 30, 1-[3-[[2-(2-Methoxyanilino)-5-(trifluoromethyl)pyrimidin-4-yl]amino]propyl]piperidin-2-one] came in with a half-inhibitory concentration (IC50) of no less than 1 µM.

For the compound `CN1CCc2cc(Nc3ncc(C(F)(F)F)c(NCCCN4CCCC4=O)n3)ccc2C1` [Example 76, 1-[3-[[2-[(2-Methyl-3,4-dihydro-1H-isoquinolin-6-yl)amino]-5-(trifluoromethyl)pyrimidin-4-yl]amino]propyl]pyrrolidin-2-one], the IC50 was less than 0.2 µM.

`O=C(CCNc1nc(Nc2ccc3c(c2)CCNC3)ncc1C(F)(F)F)N1CCOCC1` [Example 67, 1-Morpholino-3-[[2-(1,2,3,4-tetrahydroisoquinolin-6-ylamino)-5-(trifluoromethyl)pyrimidin-4-yl]amino]propan-1-one]: the IC50 was less than 0.2 µM.

The compound `O=C1CCCCN1CCCNc1nc(Nc2cc(S(=O)(=O)N3CCOCC3)cc3c2OCC3)ncc1C(F)(F)F` [Example 51, 1-[3-[[2-[(5-Morpholinosulfonyl-2,3-dihydrobenzofuran-7-yl)amino]-5-(trifluoromethyl)pyrimidin-4-yl]amino]propyl]piperidin-2-one] showed an IC50 of no less than 1 µM.

The compound `COc1cc2c(cc1Nc1ncc(C(F)(F)F)c(NCCCNC(=O)C3CCC3)n1)CNCC2` [Example 82, N-[3-[[2-[(6-methoxy-1,2,3,4-tetrahydroisoquinolin-7-yl)amino]-5-(trifluoromethyl)pyrimidin-4-yl]amino]propyl]cyclobutanecarboxamide] registered an IC50 of less than 0.2 µM.

`COc1nn(CCN2CCOCC2)cc1Nc1ncc(C(F)(F)F)c(NCCCN2CCCCC2=O)n1` [Example 53, 1-[3-[[2-[[3-Methoxy-1-(2-morpholinoethyl)pyrazol-4-yl]amino]-5-(trifluoromethyl)pyrimidin-4-yl]amino]propyl]piperidin-2-one] yielded an IC50 of no less than 1 µM.

As to `COc1cc2c(cc1Nc1ncc(C(F)(F)F)c(NCCCN3CCCC3=O)n1)CNCC2` [Example 81, 1-[3-[[2-[(6-Methoxy-1,2,3,4-tetrahydroisoquinolin-7-yl)amino]-5-(trifluoromethyl)pyrimidin-4-yl]amino]propyl]pyrrolidin-2-one], the IC50 was less than 0.2 µM.

Turning to `CN1CCc2ccc(Nc3ncc(C4CC4)c(NCCCN4CCCCC4=O)n3)cc2C1` [Example 12, 1-(3-((5-Cyclopropyl-2-((2-methyl-1,2,3,4-tetrahydroisoquinolin-7-yl)amino)pyrimidin-4-yl)amino)propyl)piperidin-2-one], the IC50 is less than 0.2 µM.

The compound `COc1cc(C(=O)NC2CCNCC2)ccc1Nc1ncc(C(F)(F)F)c(NCCCN2CCCCC2=O)n1` [Example 42, 3-Methoxy-4-[[4-[3-(2-oxo-1-piperidyl)propylamino]-5-(trifluoromethyl)pyrimidin-2-yl]amino]-N-(4-piperidyl)benzamide] gave an IC50 of 0.2 to 1 µM.

With `O=C1CCCCN1CCCNc1nc(Nc2cc3c(cc2Cl)CNCC3)ncc1C(F)(F)F` [Example 1, 1-(3-(2-(7-Chloro-1,2,3,4-tetrahydroisoquinolin-6-ylamino)-5(trifluoromethyl)pyrimidin-4-ylamino)propyl) piperidin-2-one], the IC50 is less than 0.2 µM.

With `O=C1CCCCN1CCCNc1nc(Nc2cc(CO)ccc2Cl)ncc1C(F)(F)F` [Example 26, 1-[3-[[2-[2-Chloro-5-(hydroxymethyl)anilino]-5-(trifluoromethyl)pyrimidin-4-yl]amino]propyl]piperidin-2-one], the IC50 is less than 0.2 µM.

Consider `COc1cc2c(cc1Nc1ncc(C(F)(F)F)c(NCCCN3CCCCC3=O)n1)C(=O)N(C)C2` [Example 37, 5-Methoxy-2-methyl-6-[[4-[3-(2-oxo-1-piperidyl)propylamino]-5-(trifluoromethyl)pyrimidin-2-yl]amino]isoindolin-1-one], for which the IC50 was no less than 1 µM.

For the compound `O=C(CCNc1nc(Nc2cc3c(cc2Cl)CNCC3)ncc1C(F)(F)F)N[C@@H](C1CC1)C(F)(F)F` [Example 2, (S)-3-(2-(7-chloro-1,2,3,4-tetrahydroisoquinolin-6-ylamino)-5-(trifluoromethyl)pyrimidin-4-ylamino)-N-(1-cyclopropyl-2,2,2-trifluoroethyl)propanamide], the IC50 was less than 0.2 µM.

Take `FC(F)(F)c1cnc(Nc2ccc(N3CCOCC3)cc2)nc1NCCC1CCNCC1` [Example 89, N2-(4-morpholinophenyl)-N4-[2-(4-piperidyl)ethyl]-5-(trifluoromethyl)pyrimidine-2,4-diamine]: the IC50 fell in the range of 0.2 to 1 µM.

For the compound `COc1cc(C(=O)N2CCN(C)CC2)ccc1Nc1ncc(C(F)(F)F)c(NCCCN2CCCCC2=O)n1` [Example 41, 1-[3-[[2-[2-Methoxy-4-(4-methylpiperazine-1-carbonyl)anilino]-5-(trifluoromethyl)pyrimidin-4-yl]amino]propyl]piperidin-2-one], the IC50 was in the range of 0.2 to 1 µM.

These data come from patent US20240208934A1, “ULK1/2 INHIBITORS AND THEIR USE THEREOF” (LifeArc, priority 2021, published 2024).
